Results from patent publication US20200223889A1, “Bicyclic Compounds Capable of Binding to Melanocortin 4 Receptor” (Novo Nordisk A/S, priority 2017, published 2020).
Positions of bridges follow the written chain, without caps; N, C: chain ends. Non-standard residues stand in square brackets, D forms with d. Residues, ends and D or L forms follow the SMILES beside them. Thz = O=C(O)[C@@H]1CSCN1

Experiment: In vivo acute food intake model (BioDAQ) in C57BL/6J male mice
Details: single subcutaneous dose 1 mg/kg, cumulative food intake
Procedure: The MC4R system is central to appetite regulation and agonists are known inhibit food intake. In order to screen compounds in a relevant in vivo model, efficacy was assessed by determining the effect of the compound on reducing food intake acutely in mice.
All animal protocols were approved by an Institutional Animal Care and Use Committee and Ethical Review Committee of Novo Nordisk. Animals were housed according to Novo Nordisk rodent housing standards, and were given ad libitum access to food and water under controlled lighting (12 h:12 h light/dark cycle; lights off 11:00-23:00), temperature (23±2° C.) and relative humidity (50±20%) conditions. For each acute food intake study C57BL/6J male mice (25-30 grams body weight) were acclimated for two weeks to the appropriate light cycle and to single-housing (one mouse per cage) in cages linked to a BioDAQ automated food intake system (Research Diets Inc., New Brunswick, N.J. USA). The animals were also acclimated to new food (Research Diets 12450B, 10% kcal fat) during this time.
The BioDAQ is a computer automated scientific instrument for Biological Data Acquisition of food intake in rodents and measures food intake from each cage every 15 minutes. A total of 32 animals can be accommodated in the system per study, therefore, animals were randomized into 4 groups of n=8 for each study. […] Animals were fasted ˜4 hr prior to dosing. Vehicle (10 mM phosphate; 140 mM sodium chloride) or compound was dosed at a volume of 10 ml per kg subcutaneously approximately 20 minutes prior to the start of the dark cycle (compound chem no. and dosages are indicated in table 2 below). After dosing, food intake was recorded for approximately 24 hours.
The inhibitory effect of compounds on food intake was generally well-correlated with in vitro binding affinity on the human MC4 receptor and with plasma stability of the compound. Most studies were conducted as dose response studies with vehicle and the compound at 3 doses (0.3, 1 and 3 mg/kg). Some studies were done for the purpose of dose-range finding, while others were done to comparatively assess the effect of 3 compounds at the same dose. Maximal effects on food intake occurred within the first 1-5 hours post-dose. The comparative effect of compounds across studies on food intake was assessed by normalizing measurements as % effect on cumulative food intake after a single subcutaneous dose, relative to vehicle. Results are reported in Table 2 as % effect on food intake at 3 hours post dose.

SMILES: C[C@@H]1NC(=O)[C@H](CCCCN)NC(=O)[C@@H]2CSSC[C@H](NC(=O)[C@H](Cc3c[nH]c4ccccc34)NC(=O)[C@H](C)NC(=O)[C@@H](CCCCN)NC1=O)C(=O)N1CSC[C@H]1C(=O)N[C@@H](Cc1c[nH]cn1)C(=O)N[C@H](Cc1ccccc1)C(=O)N[C@@H](Cc1c[nH]cn1)C(=O)N[C@@H](Cc1c[nH]c3ccccc13)C(=O)N2 [Chem. 114, c[c[Cys-THAZ-His-D-Phe-His-Trp- Cys]-Lys-Ala-D-Lys-Ala-Trp]] (cyclo(AWC[Thz]H[dF]HWCKA[dK]); disulfide 3-9)
- % Effect on food intake at 3 hours post dose, relative to vehicle: −64 ± 6%
